Data: ChEMBL document CHEMBL1201862, “PubChem BioAssay data set” (2004)
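Five compound concentrations were applied to cells in 96-well plates for 48 hours; endpoints were derived by simple linear interpolation of the resulting dose-response curve. GI50 marks 50% less growth.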 The source made the active and inactive calls. No stated cut-off is given here; in the data, active = GI50 up to about 1.1 µM and inactive = higher.

Key:
Assay in all cases: NCI tumour cell line growth inhibition, 48 h
DMS-273 = test system: DMS-273
XF498 = test system: XF498
KM12 = test system: KM12
MOLT-4 = test system: MOLT-4
KM-20L2 = test system: KM-20L2
K562 = test system: K562
RPMI-8226 = test system: RPMI-8226
SW-620 = test system: SW-620
U-251 = test system: U-251
SNB-19 = test system: SNB-19
SF-295 = test system: SF-295
LXFL 529 = test system: LXFL 529
RXF 631 = test system: RXF 631
CAKI-1 = test system: CAKI-1
DMS-114 = test system: DMS-114
HOP-18 = test system: HOP-18
OVCAR-3 = test system: OVCAR-3
SK-MEL-28 = test system: SK-MEL-28
UACC-62 = test system: UACC-62
SNB-78 = test system: SNB-78
HCT-15 = test system: HCT-15
DLD-1 = test system: DLD-1
COLO 205 = test system: COLO 205
A498 = test system: A498
Malme-3M = test system: Malme-3M
M19-MEL = test system: M19-MEL
SN12C = test system: SN12C
ACHN = test system: ACHN
EKVX = test system: EKVX
A549 = test system: A549
OVCAR-4 = test system: OVCAR-4
SK-OV-3 = test system: SK-OV-3
UO-31 = test system: UO-31
M14 = test system: M14
786-0 = test system: 786-0
NCI-H23 = test system: NCI-H23
NCI-H460 = test system: NCI-H460
RXF 393 = test system: RXF 393
HCC 2998 = test system: HCC 2998
SF-268 = test system: SF-268
LOX IMVI = test system: LOX IMVI
OVCAR-8 = test system: OVCAR-8
IGROV-1 = test system: IGROV-1
HOP-62 = test system: HOP-62
TK-10 = test system: TK-10
HT-29 = test system: HT-29
HL-60 = test system: HL-60
HOP-92 = test system: HOP-92
SK-MEL-2 = test system: SK-MEL-2
SNB-75 = test system: SNB-75
SF-539 = test system: SF-539
UACC-257 = test system: UACC-257
HCT-116 = test system: HCT-116
NCI-H226 = test system: NCI-H226
CCRF-CEM = test system: CCRF-CEM
OVCAR-5 = test system: OVCAR-5
SK-MEL-5 = test system: SK-MEL-5
NCI-H522 = test system: NCI-H522

Q: For Cc1cc2c(C(C)C)c(O)c(O)c(C=O)c2c(O)c1-c1c(C)cc2c(C(C)C)c(O)c(O)c(C=O)c2c1O [GOSSYPOL], which GI50 (DMS-273) is on record?
A: 4.4 µM (inactive)

Q: And the GI50 (XF498)?
A: 2.26 µM (inactive)

Q: What about the GI50 (KM12) of the same compound?
A: 1.97 µM (inactive)

Q: And the GI50 (MOLT-4)?
A: 1.91 µM (inactive)

Q: What about the GI50 (KM-20L2) of the same compound?
A: 3.33 µM (inactive)

Q: And the GI50 (K562)?
A: 3.08 µM (inactive)

Q: And the GI50 (RPMI-8226)?
A: 2.49 µM (inactive)

Q: And the GI50 (SW-620)?
A: 4.59 µM (inactive)

Q: What about the GI50 (U-251) of the same compound?
A: 2.52 µM (inactive)

Q: And the GI50 (SNB-19)?
A: 3.86 µM (inactive)

Q: What about the GI50 (SF-295) of the same compound?
A: 2.37 µM (inactive)

Q: What about the GI50 (LXFL 529) of the same compound?
A: 2.74 µM (inactive)

Q: What about the GI50 (RXF 631) of the same compound?
A: 5.32 µM (inactive)

Q: What about the GI50 (CAKI-1) of the same compound?
A: 4.14 µM (inactive)

Q: And the GI50 (DMS-114)?
A: 2.58 µM (inactive)

Q: And the GI50 (HOP-18)?
A: 3.69 µM (inactive)

Q: And the GI50 (OVCAR-3)?
A: 3.24 µM (inactive)

Q: And the GI50 (SK-MEL-28)?
A: 4.66 µM (inactive)

Q: And the GI50 (UACC-62)?
A: 2.36 µM (inactive)

Q: What about the GI50 (SNB-78) of the same compound?
A: 5.14 µM (inactive)

Q: What about the GI50 (HCT-15) of the same compound?
A: 3.52 µM

Q: And the GI50 (DLD-1)?
A: 3.84 µM (inactive)

Q: And the GI50 (COLO 205)?
A: 2.63 µM (inactive)

Q: And the GI50 (A498)?
A: 4.35 µM (inactive)

Q: What about the GI50 (Malme-3M) of the same compound?
A: 5.46 µM (inactive)

Q: What about the GI50 (M19-MEL) of the same compound?
A: 3.34 µM (inactive)

Q: What about the GI50 (SN12C) of the same compound?
A: 5.09 µM (inactive)

Q: And the GI50 (ACHN)?
A: 3.02 µM (inactive)

Q: What about the GI50 (EKVX) of the same compound?
A: 2.15 µM (inactive)

Q: What about the GI50 (A549) of the same compound?
A: 2.98 µM (inactive)

Q: Which GI50 (OVCAR-4) does the source give for Sc1ccccc1S here?
A: > 100 µM (inactive)

Q: And the GI50 (SK-OV-3)?
A: > 100 µM (inactive)

Q: What about the GI50 (UO-31) of the same compound?
A: > 10 µM (inactive)

Q: What about the GI50 (DMS-273) of the same compound?
A: > 100 µM (inactive)

Q: What about the GI50 (XF498) of the same compound?
A: > 100 µM (inactive)

Q: What about the GI50 (M14) of the same compound?
A: > 100 µM (inactive)

Q: And the GI50 (KM-20L2)?
A: > 100 µM (inactive)

Q: And the GI50 (K562)?
A: > 100 µM (inactive)

Q: What about the GI50 (SW-620) of the same compound?
A: > 100 µM (inactive)

Q: And the GI50 (U-251)?
A: > 100 µM (inactive)

Q: What about the GI50 (786-0) of the same compound?
A: > 100 µM (inactive)

Q: And the GI50 (NCI-H23)?
A: > 100 µM (inactive)

Q: What about the GI50 (NCI-H460) of the same compound?
A: > 100 µM (inactive)

Q: And the GI50 (SNB-19)?
A: > 100 µM (inactive)

Q: What about the GI50 (RXF 393) of the same compound?
A: > 100 µM (inactive)

Q: What about the GI50 (HCC 2998) of the same compound?
A: > 100 µM (inactive)

Q: What about the GI50 (SF-295) of the same compound?
A: > 100 µM (inactive)

Q: What about the GI50 (LXFL 529) of the same compound?
A: > 100 µM (inactive)

Q: What about the GI50 (RXF 631) of the same compound?
A: > 100 µM (inactive)

Q: What about the GI50 (SF-268) of the same compound?
A: > 100 µM (inactive)

Q: And the GI50 (CAKI-1)?
A: > 100 µM (inactive)

Q: What about the GI50 (DMS-114) of the same compound?
A: > 100 µM (inactive)

Q: And the GI50 (HOP-18)?
A: > 100 µM (inactive)

Q: What about the GI50 (OVCAR-3) of the same compound?
A: > 100 µM (inactive)

Q: And the GI50 (SK-MEL-28)?
A: > 100 µM (inactive)

Q: What about the GI50 (UACC-62) of the same compound?
A: > 100 µM (inactive)

Q: What about the GI50 (LOX IMVI) of the same compound?
A: > 100 µM (inactive)

Q: And the GI50 (SNB-78)?
A: > 100 µM (inactive)

Q: And the GI50 (HCT-15)?
A: > 100 µM

Q: And the GI50 (OVCAR-8)?
A: > 10 µM (inactive)

Q: What about the GI50 (DLD-1) of the same compound?
A: > 100 µM (inactive)

Q: What about the GI50 (COLO 205) of the same compound?
A: > 100 µM (inactive)

Q: What about the GI50 (IGROV-1) of the same compound?
A: > 100 µM (inactive)

Q: What about the GI50 (HOP-62) of the same compound?
A: > 100 µM (inactive)

Q: What about the GI50 (Malme-3M) of the same compound?
A: > 100 µM (inactive)

Q: What about the GI50 (TK-10) of the same compound?
A: > 10 µM (inactive)

Q: What about the GI50 (M19-MEL) of the same compound?
A: > 100 µM (inactive)

Q: What about the GI50 (HT-29) of the same compound?
A: > 100 µM (inactive)

Q: And the GI50 (SN12C)?
A: > 100 µM (inactive)

Q: And the GI50 (ACHN)?
A: > 100 µM (inactive)

Q: And the GI50 (EKVX)?
A: > 10 µM (inactive)

Q: What about the GI50 (A549) of the same compound?
A: > 100 µM (inactive)

Q: And the GI50 (HL-60)?
A: > 100 µM (inactive)

Q: What about the GI50 (HOP-92) of the same compound?
A: > 100 µM (inactive)

Q: How did the GI50 (OVCAR-4) turn out when CC(=O)NNc1nc(C)c(C(/C=C/c2ccc(Cl)cc2)=N\NS(=O)(=O)c2ccc(C)cc2)s1 was run?
A: > 100 µM (inactive)

Q: What about the GI50 (SK-OV-3) of the same compound?
A: > 100 µM (inactive)

Q: What about the GI50 (SK-MEL-2) of the same compound?
A: > 100 µM (inactive)

Q: And the GI50 (UO-31)?
A: > 100 µM (inactive)

Q: And the GI50 (DMS-273)?
A: > 100 µM (inactive)

Q: What about the GI50 (XF498) of the same compound?
A: > 60.4 µM (inactive)

Q: And the GI50 (KM12)?
A: > 100 µM (inactive)

Q: And the GI50 (M14)?
A: > 100 µM (inactive)

Q: What about the GI50 (MOLT-4) of the same compound?
A: > 100 µM (inactive)

Q: And the GI50 (KM-20L2)?
A: > 100 µM (inactive)

Q: And the GI50 (K562)?
A: > 100 µM (inactive)

Q: What about the GI50 (RPMI-8226) of the same compound?
A: > 100 µM (inactive)

Q: And the GI50 (SW-620)?
A: > 100 µM (inactive)

Q: What about the GI50 (U-251) of the same compound?
A: > 100 µM (inactive)

Q: And the GI50 (786-0)?
A: > 100 µM (inactive)

Q: What about the GI50 (SNB-75) of the same compound?
A: > 100 µM (inactive)

Q: What about the GI50 (NCI-H23) of the same compound?
A: > 100 µM (inactive)

Q: And the GI50 (SF-539)?
A: > 100 µM (inactive)

Q: What about the GI50 (NCI-H460) of the same compound?
A: > 100 µM (inactive)

Q: And the GI50 (SNB-19)?
A: > 100 µM (inactive)

Q: And the GI50 (RXF 393)?
A: > 100 µM (inactive)

Q: What about the GI50 (HCC 2998) of the same compound?
A: > 100 µM (inactive)

Q: And the GI50 (SF-295)?
A: > 100 µM (inactive)

Q: And the GI50 (LXFL 529)?
A: > 100 µM (inactive)

Q: And the GI50 (RXF 631)?
A: > 100 µM (inactive)

Q: And the GI50 (SF-268)?
A: > 100 µM (inactive)

Q: What about the GI50 (CAKI-1) of the same compound?
A: > 100 µM (inactive)

Q: And the GI50 (HOP-18)?
A: > 100 µM (inactive)

Q: And the GI50 (UACC-257)?
A: > 100 µM (inactive)

Q: What about the GI50 (HCT-116) of the same compound?
A: > 100 µM (inactive)

Q: What about the GI50 (OVCAR-3) of the same compound?
A: > 100 µM (inactive)

Q: What about the GI50 (SK-MEL-28) of the same compound?
A: > 100 µM (inactive)

Q: And the GI50 (UACC-62)?
A: > 100 µM (inactive)

Q: And the GI50 (LOX IMVI)?
A: > 100 µM (inactive)

Q: And the GI50 (SNB-78)?
A: > 100 µM (inactive)

Q: What about the GI50 (HCT-15) of the same compound?
A: > 100 µM

Q: And the GI50 (OVCAR-8)?
A: > 100 µM (inactive)

Q: And the GI50 (DLD-1)?
A: > 100 µM (inactive)

Q: And the GI50 (COLO 205)?
A: > 100 µM (inactive)

Q: What about the GI50 (IGROV-1) of the same compound?
A: > 100 µM (inactive)

Q: What about the GI50 (A498) of the same compound?
A: > 100 µM (inactive)

Q: What about the GI50 (HOP-62) of the same compound?
A: > 100 µM (inactive)

Q: And the GI50 (NCI-H226)?
A: > 100 µM (inactive)

Q: And the GI50 (Malme-3M)?
A: > 100 µM (inactive)

Q: What about the GI50 (TK-10) of the same compound?
A: > 100 µM (inactive)

Q: What about the GI50 (CCRF-CEM) of the same compound?
A: > 100 µM (inactive)

Q: And the GI50 (M19-MEL)?
A: > 100 µM (inactive)

Q: What about the GI50 (HT-29) of the same compound?
A: > 100 µM (inactive)

Q: And the GI50 (SN12C)?
A: > 100 µM (inactive)

Q: And the GI50 (ACHN)?
A: > 100 µM (inactive)

Q: What about the GI50 (EKVX) of the same compound?
A: > 100 µM (inactive)

Q: What about the GI50 (A549) of the same compound?
A: > 100 µM (inactive)

Q: And the GI50 (HL-60)?
A: > 100 µM (inactive)

Q: And the GI50 (OVCAR-5)?
A: > 100 µM (inactive)

Q: What about the GI50 (SK-MEL-5) of the same compound?
A: > 100 µM (inactive)

Q: What about the GI50 (HOP-92) of the same compound?
A: > 100 µM (inactive)

Q: What about the GI50 (NCI-H522) of the same compound?
A: > 100 µM (inactive)
